# Measurements published in patent US11919902B2, “Aryl-bipyridine amine derivatives as phosphatidylinositol phosphate kinase inhibitors” (HiberCell, Inc., priority 2017, dated 2024).
# Legend:
# [1] = target: T1, PIP4K2A (full length protein, SignalChem) (Homo sapiens, UniProt P48426); assay: Kinase Assay PIP4K2 A (Sprint); ADP-Glo biochemical assay; settings: Table 2; compounds listed under IC50 range headings
# T1 construct: 4 nM PIP4K2A (full length protein, SignalChem); purchased SignalChem
# T1 sequence (P48426 1-406): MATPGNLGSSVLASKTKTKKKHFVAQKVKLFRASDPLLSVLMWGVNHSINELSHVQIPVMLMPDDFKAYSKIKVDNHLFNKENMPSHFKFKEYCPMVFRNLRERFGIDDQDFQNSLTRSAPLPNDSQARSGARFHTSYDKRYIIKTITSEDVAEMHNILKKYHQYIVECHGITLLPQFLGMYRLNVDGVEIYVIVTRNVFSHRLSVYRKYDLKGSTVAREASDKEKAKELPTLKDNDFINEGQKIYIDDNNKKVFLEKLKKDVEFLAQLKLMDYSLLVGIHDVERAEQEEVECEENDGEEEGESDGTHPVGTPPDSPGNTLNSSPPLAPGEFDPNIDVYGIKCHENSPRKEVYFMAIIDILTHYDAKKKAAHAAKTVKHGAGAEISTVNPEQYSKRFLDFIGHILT
# In short: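 Compounds (10-point, 3-fold dilutions) were pre-incubated 15 min at RT with an enzyme/substrate mix of 4 nM full-length PIP4K2A and 100 μM PI(5)P diC8 in 20 mM MOPS pH 7.2, 25 mM MgCl2, 0.005% Tween 20. A 60 μM ATP solution was added, reaction 1 h RT; ADP read by ADP-Glo luminescence, IC50 fitted from % inhibition vs DMSO.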
# [2] = target: T2, GST tagged PIP4KtypeIIA (Homo sapiens, UniProt P48426); assay: ADP-glo kinase assay PIP4K 2A (PIP4KtypeIIA inhibition assay); assay type: biochemical; settings: Table 3; compounds listed under IC50 range headings; 10 uM ATP, 0.5 nM PIP4KIIA
# T2 construct: made in house; host or cells: E. coli
# T2 sequence (P48426 1-406): T1 sequence (P48426 1-406)
# In short: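 E. coli-expressed GST-PIP4KtypeIIA (0.5 nM final) was preincubated 1 h at 27 °C with compound (up to 4.8 μM, 5% DMSO) in PI5P/DOPE lipid in 50 mM HEPES pH 7.3 with 10 mM MgCl2. The reaction was started with 10 μM ATP (final) and run 1 h. ADP was read by ADP-Glo luminescence via a calibration curve, and IC50 was taken from % residual activity.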
# [3] = target: T3, GST tagged PIP4KtypeIIB (Homo sapiens, UniProt P78356); assay: Trans-FI P kinase assay PIP4K2B (PIP4KtypeIIB inhibition assay); assay type: biochemical; settings: Table 4; compounds listed under IC50 range headings; 100 uM GTP, 5 nM PIP4KIIB; read-out: Trans-FI P kinase assays: PIP4K2B IC50
# T3 construct: made in house; host or cells: E. coli
# T3 sequence (P78356 1-416): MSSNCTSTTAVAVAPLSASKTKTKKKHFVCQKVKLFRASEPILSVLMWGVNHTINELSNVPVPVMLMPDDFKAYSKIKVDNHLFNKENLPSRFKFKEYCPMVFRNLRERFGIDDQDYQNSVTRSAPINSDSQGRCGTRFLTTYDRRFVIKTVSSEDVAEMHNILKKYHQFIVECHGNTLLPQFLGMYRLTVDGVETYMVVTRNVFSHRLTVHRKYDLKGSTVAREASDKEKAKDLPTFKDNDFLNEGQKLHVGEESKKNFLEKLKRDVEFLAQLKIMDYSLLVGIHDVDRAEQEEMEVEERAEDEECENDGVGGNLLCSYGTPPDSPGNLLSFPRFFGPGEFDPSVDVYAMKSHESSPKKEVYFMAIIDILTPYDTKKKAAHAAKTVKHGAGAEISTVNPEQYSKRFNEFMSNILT
# In short: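 Purified GST-PIP4KIIB (5 nM final), 1 h preincubation with compound at 27 C, then 2 h reaction with 100 uM GTP and 80 uM PI5P plus DOPE carrier lipid in pH 7.3 HEPES/MgCl2/Triton buffer with 5% DMSO. GDP read by Transcreener FI fluorescence against a calibration curve; IC50 from % no-inhibitor activity vs log concentration.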
IC50 [1] [nM],IC50 [2] [nM],IC50 [3] [nM],SMILES
100 to 1000,100 to 1000,100 to 1000,"CN(C)C(=O)c1ccc(-c2cc(-c3ccnc4cc(N(C)C)ccc34)cnc2N)nc1 [Example 110, 2′-amino-5′-(7-(dimethylamino)quinolin-4-yl)-N,N-dimethyl-[2,3′-bipyridine]-5-carboxamide]"
100 to 1000,100 to 1000,100 to 1000,"CN(C)C(=O)c1ccc(-c2cc(-c3ccnc4ncccc34)cnc2N)nc1 [Example 111, 2′-amino-N,N-dimethyl-5′-(1,8-naphthyridin-4-yl)-[2,3′-bipyridine]-5-carboxamide]"
5 to 100,100 to 1000,100 to 1000,"CN(C)C(=O)c1ccc(-c2cc(-c3ccnc4[nH]c(=O)[nH]c34)cnc2N)nc1 [Example 113, 2′-amino-N,N-dimethyl-5′-(2-oxo-2,3-dihydro-1H-imidazo[4,5-b]pyridin-7-yl)-[2,3′-bipyridine]-5-carboxamide]"
< 5000,> 5000,> 5000,"CN(C)C(=O)c1ccc(-c2cc(-c3ccnc4cccc(C#N)c34)cnc2N)nc1 [Example 118, 2′-amino-5′-(5-cyanoquinolin-4-yl)-N,N-dimethyl-[2,3′-bipyridine]-5-carboxamide]"
< 5000,> 5000,> 5000,"CN(C)C(=O)c1ccc(-c2cc(-c3cccnc3N)cnc2N)nc1 [Example 120, 2′,2″-diamino-N,N-dimethyl-[2,3′:5′,3″-terpyridine]-5-carboxamide]"
100 to 1000,1000 to 2500,> 5000,"CN(C)C(=O)c1ccc(-c2cc(-c3cnc4c(c3)c(-c3cccnc3)nn4C)cnc2N)nc1 [Example 123, 2′-amino-N,N-dimethyl-5′-(1-methyl-3-(pyridin-3-yl)-1H-pyrazolo[3,4-b]pyridin-5-yl)-[2,3′-bipyridine]-5-carboxamide]"
1000 to 2500,> 5000,> 5000,"CN(C)C(=O)c1ccc(-c2cc(-c3cnc4c(c3)c(-c3cncnc3)nn4C)cnc2N)nc1 [Example 124, 2′-amino-N,N-dimethyl-5′-(1-methyl-3-(pyrimidin-5-yl)-1H-pyrazolo[3,4-b]pyridin-5-yl)-[2,3′-bipyridine]-5-carboxamide]"
100 to 1000,1 to 10,2500 to 5000,"CN(C)C(=O)c1ccc(-c2cc(-c3cnc4c(c3)c(-c3cncs3)cn4C)cnc2N)nc1 [Example 125, 2′-amino-N,N-dimethyl-5′-(1-methyl-3-(thiazol-5-yl)-1H-pyrrolo[2,3-b]pyridin-5-yl)-[2,3′-bipyridine]-5-carboxamide]"
5 to 100,10 to 100,10 to 100,"COC(=O)c1cc2c(-c3cnc(N)c(-c4ccc(C(=O)N(C)C)cn4)c3)ccnc2[nH]1 [Example 126, methyl 4-(2′-amino-5-(dimethylcarbamoyl)-[2,3′-bipyridin]-5′-yl)-1H-pyrrolo[2,3-b]pyridine-2-carboxylate]"
5 to 100,100 to 1000,10 to 100,"CN(C)C(=O)c1ccc(-c2cc(-c3ccnc4[nH]c(C(=O)N(C)C)cc34)cnc2N)nc1 [Example 127, 4-(2′-amino-5-(dimethylcarbamoyl)-[2,3′-bipyridin]-5′-yl)-N,N-dimethyl-1H-pyrrolo[2,3-b]pyridine-2-carboxamide]"
100 to 1000,1000 to 2500,100 to 1000,"CN(C)C(=O)c1ccc(-c2cc(-c3ccnc4[nH]c(C(=O)N5CCOCC5)cc34)cnc2N)nc1 [Example 128, 2′-amino-N,N-dimethyl-5′-(2-(morpholine-4-carbonyl)-1H-pyrrolo[2,3-b]pyridin-4-yl)-[2,3′-bipyridine]-5-carboxamide]"
100 to 1000,100 to 1000,100 to 1000,"CN(C)C(=O)c1ccc(-c2cc(-c3ccnc4[nH]c(C(=O)N5CC(O)C5)cc34)cnc2N)nc1 [Example 129, 2′-amino-5′-(2-(3-hydroxyazetidine-1-carbonyl)-1H-pyrrolo[2,3-b]pyridin-4-yl)-N,N-dimethyl-[2,3′-bipyridine]-5-carboxamide]"
100 to 1000,100 to 1000,100 to 1000,"CN(C)C(=O)c1ccc(-c2cc(-c3ccnc4[nH]c(C(=O)N5CC(C(N)=O)C5)cc34)cnc2N)nc1 [Example 130, 2′-amino-5′-(2-(3-carbamoylazetidine-1-carbonyl)-1H-pyrrolo[2,3-b]pyridin-4-yl)-N,N-dimethyl-[2,3′-bipyridine]-5-carboxamide]"
100 to 1000,100 to 1000,10 to 100,"CC(C)CNC(=O)c1cc2c(-c3cnc(N)c(-c4ccc(C(=O)N(C)C)cn4)c3)ccnc2[nH]1 [Example 131, 4-(2′-amino-5-(dimethylcarbamoyl)-[2,3′-bipyridin]-5′-yl)-N-isobutyl-1H-pyrrolo[2,3-b]pyridine-2-carboxamide]"
100 to 1000,100 to 1000,10 to 100,"COCCNC(=O)c1cc2c(-c3cnc(N)c(-c4ccc(C(=O)N(C)C)cn4)c3)ccnc2[nH]1 [Example 132, 4-(2′-amino-5-(dimethylcarbamoyl)-[2,3′-bipyridin]-5′-yl)-N-(2-methoxyethyl)-1H-pyrrolo[2,3-b]pyridine-2-carboxamide]"
5 to 100,100 to 1000,10 to 100,"CN(C)C(=O)c1ccc(-c2cc(-c3ccnc4[nH]c(C(=O)NCc5ccccc5)cc34)cnc2N)nc1 [Example 134, 4-(2′-amino-5-(dimethylcarbamoyl)-[2,3′-bipyridin]-5′-yl)-N-benzyl-1H-pyrrolo[2,3-b]pyridine-2-carboxamide]"
5 to 100,100 to 1000,10 to 100,"CN(C)C(=O)c1ccc(-c2cc(-c3ccnc4[nH]c(C(=O)NCc5ccncc5)cc34)cnc2N)nc1 [Example 135, 4-(2′-amino-5-(dimethylcarbamoyl)-[2,3′-bipyridin]-5′-yl)-N-(pyridin-4-ylmethyl)-1H-pyrrolo[2,3-b]pyridine-2-carboxamide]"
5 to 100,100 to 1000,10 to 100,"CN(C)C(=O)c1ccc(-c2cc(-c3ccnc4[nH]c(C(=O)NCc5cccnc5)cc34)cnc2N)nc1 [Example 136, 4-(2′-amino-5-(dimethylcarbamoyl)-[2,3′-bipyridin]-5′-yl)-N-(pyridin-3-ylmethyl)-1H-pyrrolo[2,3-b]pyridine-2-carboxamide]"
100 to 1000,100 to 1000,10 to 100,"CN(C)C(=O)c1ccc(-c2cc(-c3ccnc4[nH]c(C(=O)NCC(F)(F)F)cc34)cnc2N)nc1 [Example 138, 4-(2′-amino-5-(dimethylcarbamoyl)-[2,3′-bipyridin]-5′-yl)-N-(2,2,2-trifluoroethyl)-1H-pyrrolo[2,3-b]pyridine-2-carboxamide]"
< 5000,> 5000,2500 to 5000,"Nc1ncc(-c2ccnc3[nH]c(C(=O)NCC(F)(F)F)cc23)cc1-c1ccc(C(=O)NCC(F)(F)F)cn1 [Example 139, 4-(2′-amino-5-((2,2,2-trifluoroethyl)carbamoyl)-[2,3′-bipyridin]-5′-yl)-N-(2,2,2-trifluoroethyl)-1H-pyrrolo[2,3-b]pyridine-2-carboxamide]"
100 to 1000,100 to 1000,100 to 1000,"CN(C)C(=O)c1ccc(-c2cc(-c3ccnc4[nH]c(C(=O)N5CCNCC5)cc34)cnc2N)nc1 [Example 140, 2′-amino-N,N-dimethyl-5′-(2-(piperazine-1-carbonyl)-1H-pyrrolo[2,3-b]pyridin-4-yl)-[2,3′-bipyridine]-5-carboxamide]"
